Experimental data from patent US20210244814A1, “COMBINATION OF METFORMIN AND CYCLOPHOSPHAMIDE AS AN ADJUVANT IN CANCER IMMUNOTHERAPY” (UNIVERSITÉ CATHOLIQUE DE LOUVAIN, priority 2018, published 2021).

Tests used:
[1] = tested on: MC38 colon carcinoma; experiment: MC38 colon carcinoma tumor rejection with anti-PD-1 antibody; type: in vivo, mice; conditions: MC38, 16 days after treatment, associated with the PD-1 inhibitor; FIG. 9B-D
From the text: (§1) Gender and age matched […] wild-type mice were used for the experiments with checkpoint inhibitors.
(§2) For the experiments with checkpoint inhibitors, gender matched, 7-9 weeks old […] wild-type mice were subcutaneously injected with 1 million of B16F1 or MC38 tumor cells. Mice were randomized based on the tumor size one week after the injection of tumor cells (B16F1 melanoma model) or when the average tumor size was between 90 and 120 mm^3 (MC38 colon carcinoma model). Tumor-bearing mice were then treated with CTX or PBS as described above. One day after, metformin was prepared as mentioned above and added to the mice drinking water until the end of the experiment. A dose of 100 μg/mouse of anti-PD-1 antibody (clone RMP1-14, Bio-X-Cell) or RatIgG2a isotype (clone 2A3, Bio-X-Cell) was injected intraperitoneally three times (B16F1 model) or four times (MC38 model) every three or four days starting from the day after CTX or PBS treatment.

[2] = tested on: B16F1 melanoma tumors; experiment: B16F1 melanoma tumor growth with anti-PD-1 antibody or isotype control; type: in vivo, mice; conditions: FIG. 8A; for growth of B16F1 melanoma tumors, single treatment: B6 mice
From the text: as §1, §2

[3] = tested on: TiRP mice (genetically engineered mouse melanoma model); experiment: Tumor growth, tumor weight and survival of TiRP mice with or without ACT; type: in vivo; conditions: for tumor response to the immunotherapy (tumor growth) / tumor growth and tumor weight 14 days after ACT / tumor growth in the presence of ACT: TiRP mice with ACT; for tumor response to the immunotherapy (tumor growth): up to 22 days after ACT, FIG. 6A; for tumor growth and tumor weight 14 days after ACT: CTX 100 mg/kg the day before ACT and/or metformin 0.5 mg/ml for 14 days, FIG. 5; for tumor growth in the presence of ACT / tumor growth in absence of ACT: FIG. 7; for tumor growth in absence of ACT: TiRP mice without ACT
From the text: (§3) TiRP mice have been created by crossing Ink4a/Arf^flox/flox mice with mice carrying a transgenic construct controlled by the tyrosinase promoter and driving the expression of H-Ras^12V and Trap 1 a which encodes a MAGE-type tumor antigen P1A; the promoter is separated from the coding region by a stop cassette made of a floxed self-deleting CreER (Huijbers et al., 2006, Cancer Res 66, 3278-3286). Those mice were backcrossed to a B10.D2 background and bred to homozygosity. TCRP1A mice heterozygous for the H-2Ld/P1A35-43-specific TCR transgene were kept on the B10.D2;Rag1^−/− background (Shanker et al., 2004, J Immunol 172, 5069-5077).
(§4) A fresh solution of 4OH-Tamoxifen was prepared by dissolving 4OH-Tamoxifen (Imaginechem) in 100% ethanol and mineral oil (ratio 1:9) followed by 30-min sonication, and injected subcutaneously (2 mg/200 μl per mouse) in the neck area of gender-matched 7 weeks old TiRP mice. Tumor appearance was monitored daily and tumors were measured three times/week. Tumor volume (in mm^3) was calculated by the following formula: Volume=width^2×length×π/6. Tumor-bearing TiRP mice were randomized based on the tumor size when average volume was 500 mm^3 and treated as indicated. For cyclophosphamide (CTX, Sigma C7397) treatment, mice received an intra-peritoneal injection of CTX at 100 mg/kg or vehicle (PBS) 24 h before adoptive cell transfer. For metformin treatment, metformin (Enzo, ALX-270-432) was dissolved in mice drinking water at a concentration of 0.5 mg/ml and administered to the mice from the moment of adoptive cell transfer until the end of the experiment; the solution was replaced three times/week.
(§5) For the adoptive cell transfer (ACT), P1A-specific (TCRP1A) CD8^+ T cells were isolated from spleens and lymph nodes of TCRP1A mice using anti-mouse CD8α (Ly-2) MicroBeads (Miltenyi Biotec), and stimulated in vitro by co-culture with irradiated (10.000 rads) L1210.P1A.B7-1 cells (Gajewski et al., 1995, J Immunol 154, 5637-5648) at 1:2 ratio (0.5×10^5 CD8^+ T cells and 10^5 L1210.P1A.B7-1 cells per well in 48-well plates) in IMDM (GIBCO) containing 10% fetal bovine serum supplemented with L-arginine (0.55 mM, Merck), L-asparagine (0.24 mM, Merck), glutamine (1.5 mM, Merck), betamercaptoethanol (50 μM, Sigma), 50 Uml^−1 penicillin and […] streptomycin (Life Technologies). Four days later, TCRP1A CD8^+ T cells were purified on a Lymphoprep gradient (StemCell) and 10^7 living cells were injected intravenously in 200 μl PBS in TiRP-tumor bearing mice.
Data entry and all analyses were performed in a blinded fashion. All statistical analyses were performed using GraphPad Prism software. Statistical significance was calculated by two-tailed unpaired t-test on two experimental conditions or two-way analysis of variance (ANOVA) when repeated measures were compared, with p<0.05 considered statistically significant. Independent experiments were pooled and analyzed together whenever possible. All graphs show mean values±s.e.m.

[4] = tested on: TCRP1A CD8^+ T cells, Treg cells and PMN-MDSCs infiltrating TiRP tumors; experiment: FACS analysis of tumor-infiltrating cells in TiRP-tumor bearing mice after adoptive cell transfer (ACT); type: in vivo; conditions: for tumor infiltration of the transferred TCRP1A CD8+ T cells / survival of the transferred TCRP1A CD8+ T cells (apoptosis, annexin V): 14 days after ACT, CTX 100 mg/kg one day before ACT and/or metformin 0.5 mg/ml drinking water; for tumor infiltration of the transferred TCRP1A CD8+ T cells: FIG. 3A; for survival of the transferred TCRP1A CD8+ T cells (apoptosis, annexin V): FIG. 3B
From the text: as §3, §4, §5
For hypoxia detection, mice received an intraperitoneal injection of pimonidazole hydrochloride at 60 mg/kg (Hypoxyprobe) 45 minutes before tumor harvesting. Tumor single cell suspension was prepared using gentleMACS Dissociator and incubating the tissue in RMPI containing 0.04% collagenase I, 0.04% collagenase II and 0.05% dispase (all from GIBCO) for 1 hour at 37° C. After passing the cell suspension through a 70 μm- and 40 μm-cell strainer, red blood cell lysis was performed (eBioscience, 00-4300-54). Tumor cell preparation was stained with the Viability dye eFluor780 (eBioscience, 1:1000) to identify dead cells during the FACS analysis, and then incubated with Mouse BD Fc Block (BD, clone 2.4G2, 1:100) in PBS supplemented with 2% FBS and 2 mM EDTA. TCRP1A CD8^+ T cells were labeled by using H-2L^d PIA tetramer-PE (1 μM, produced in-house at the Ludwig Institute for Cancer Research) and anti-CD8α BV-421 (BioLegend, 53-6.7, 1:200); for apoptosis quantification, Annexin V APC (BioLegend, 1:20) was used. Hypoxic cells were identified with the anti-pimonidazole antibody (Hypoxyprobe, HP-FITC-Mab 4.3.11.3, 1:100) after cell fixation and permeabilization according to manufacturer's instructions (eBioscience Transcription Factor Staining Buffer Set).

Compound	mice that had rejected the tumor [1] [%]	growth of B16F1 melanoma tumors, single treatment [2]	tumor response to the immunotherapy (tumor growth) [3]	tumor growth and tumor weight 14 days after ACT [3]	tumor growth in the presence of ACT [3]	tumor growth in absence of ACT [3]	tumor infiltration of Treg cells ([4]; 4 days after ACT, single injection of CTX 100 mg/kg one day before ACT, FIG. 2A)	tumor infiltration of PMN-MDSCs ([4]; 4 days after ACT, single injection of CTX 100 mg/kg one day before ACT, FIG. 2B)	tumor infiltration of the transferred TCRP1A CD8+ T cells [4]	survival of the transferred TCRP1A CD8+ T cells (apoptosis, annexin V) [4]	tumor response to the PD-1 inhibitor ([2]; B16F1, associated with anti-PD-1 antibody 100 μg on day 0, 3, 7, C, D)	infiltration of TCRP1A CD8^+ T cells in the tumor ([4]; 4 days after ACT, metformin 0.5 mg/ml in drinking water from ACT, vs vehicle, FIG. 1A)	recruitment of TCRP1A CD8^+ T cells to the hypoxic regions of the tumor ([4]; 4 days after ACT, metformin 0.5 mg/ml in drinking water, pimonidazole-positive, FIG. 1B)
O=P1(N(CCCl)CCCl)NCCCO1 (stereo not drawn) [cyclophosphamide, 2-[bis(2-chloroethyl)amino]-1,3,2λ^5-oxazaphosphinan-2-one]	40	induced per se a significant tumor response	did induce a significant tumor response	allowed an inhibition of the tumor growth	tumor response was improved by the immunotherapy	significantly reduced tumor growth	reduced	reduced	increase	increase			
CN(C)C(=N)N=C(N)N [metformin, 3-(diaminomethylidene)-1,1-dimethylguanidine]	20	not significantly affected	did not seem to induce a significant tumor response	seemed to partially reduce tumor growth	did not inhibit tumor growth	did not inhibit tumor growth			increased tumor infiltration	increased survival	did not seem to induce a significant tumor response	significantly increased	allowed the recruitment
